Like-named read-outs stand apart in the source and are kept apart here.
Assays:
Solubility in solvents = assay type: physicochemical
[1] = Multiple ascending-dose (MAD) study, plasma pharmacokinetics; assay type: in vivo, human; conditions: for Cl/F / CLss/F / Css_max / Rac (AUC), accumulation ratio at steady state / Rac_Cmax, accumulation ratio at steady state / AUC(0-t) / Vd/F / Cmax / MRT inf / AUC / AUC(0-inf) / half-life / concentration at 10 day: mean (SD); for AUC(0-t) / Vd/F / Tmax / Tmax at 10 days / Cmax / MRT inf / AUC / AUC(0-inf) / half-life / concentration at 10 day: both sexes, human, plasma, oral; for MRT inf: read-out: MRT0-∞; for concentration at 10 day: read-out: Css_min
Procedure: Three drug doses (10, 20 and 40 mg) were utilized. A total of 36 healthy subjects of both genders were assigned randomly to the three groups (n = 12), with10 subjects taking HEC113995PA·H2O tablets and 2 taking placebo. The participants in the 10 mg dose group received a single dose daily in the morning after overnight fasting, or a single dose daily after a standard meal in the 20 mg and 40 mg dose groups for 10 consecutive days. Serial blood samples were collected within 0.5 h before drug administration on days 7, 8 and 9, and before and after drug administration on days 1 and 10 to determine plasma concentration and pharmacokinetic characteristics. Safety and tolerability were evaluated on days 4, 8, 13 and 15.
In the first dose group of single ascending-dose study, PK blood samples were collected at 0.5 h before administration and 0.5, 1, 1.5, 2, 2.5, 3, 4, 5, 6, 8, 10, 12, 24, 36, 48, and 72 h after administration. In other SAD groups, MAD groups and food effect study, PK blood samples were collected at 0.5 h before administration, and 1, 2, 3, 4, 5, 6, 7, 8, 10, 12, 24, 48, 72, 96, 120 and 144 h after administration. Approximately 4 mL of venous blood was obtained from each collection and placed in a vacuum collection vessel containing K2EDTA anticoagulant. The blood was centrifuged and packed according to the instruction provided by the Biological Sample Detection and Analysis Unit. Briefly, all samples were centrifuged at 4°C, 1,500 g for 10 min within 0.5 h after blood collection. After centrifugation, the plasma was aliquoted into two cryogenic storage tubes. The first tube (Tube A) contained at least 0.8 mL of plasma for analytical testing, and the remaining plasma is allocated into the backup tube (Tube B). The plasma samples were stored at −80°C within 1 h after aliquoting for further analysis.
The concentration of HEC113995PA·H2O in human plasma samples (K2EDTA) was quantitatively analyzed using the LC-MS/MS method. Plasma samples (50 μL) were processed using protein precipitation with 5 μL deuterated internal standard (HEC124659) and 100 μL acetonitrile. The Shimadzu LCMS-8060 system coupled with a GL Sciences Inc. InertSustain AQ-C18 HP column (50 × 2.1 mm, 3 μm) achieved chromatographic separation through gradient elution using 0.04% TFA aqueous solution (pH 2.1) and acetonitrile at 0.4 mL/min. ESI-positive mode detection employed optimized parameters: 300°C interface temperature, 250°C DL temperature, 3 L/min nebulizer gas, and 400°C heating block temperature.
Using WinNonlin 7.0 for non-compartmental analysis (NCA), pharmacokinetic (PK) parameters were meticulously calculated based on the actual sampling times for plasma, urine, and fecal samples from each subject post-administration. These parameters encompassed a comprehensive range, including the area under the concentration–time curve (AUC), AUC from time zero (pre-dose) to the time of the last measurable concentration (AUC0-t), and AUC from time zero (pre-dose) to infinity (AUC0-∞). Additionally, maximum observed plasma concentration (Cmax), time to achieve maximum plasma concentration (Tmax), terminal elimination half-life (t1/2), elimination rate constant (Ke), apparent volume of distribution (Vd/F), clearance rate (CL/F), and mean residence time (MRT) were also determined. The AUC0-t and AUC0-∞ values were computed using the linear trapezoidal rule method. Tmax and Cmax were ascertained based on the actual observed data. In the context of the multiple ascending-dose study, both the degree of fluctuation (DF) and the accumulation ratio at steady state (Rac) were thoroughly analyzed.

rats = assay: Behavioral despair models, rats; assay type: in vivo; conditions: single, multiple, and chronic administrations, unpublished data
[2] = MAD 10 mg (N = 10), D1, fasting
[3] = MAD 20 mg (N = 9), D1, after standard meal
[4] = MAD 20 mg (N = 9), D10, QD after standard meal
[5] = MAD 40 mg (N = 10), D1, after standard meal
[6] = MAD 40 mg (N = 10), D10, QD after standard meal

In the case of `Cc1nc(-c2cnc(N3CCN(CCCc4c[nH]c5ccc(C#N)cc45)CC3)nc2)sc1C(N)=O` [HEC113995PA·H2O], the solubility (Solubility in solvents; 95% ethanol) is reported as “practically insoluble”, the solubility (Solubility in solvents; N,N-dimethylacetamide (DMA)) is reported as “soluble” and the solubility (Solubility in solvents; acetone) is reported as “practically insoluble”. The solubility (Solubility in solvents; acetonitrile) was “practically insoluble”, the solubility (Solubility in solvents; dichloromethane) was “practically insoluble” and the solubility (Solubility in solvents; dimethyl sulfoxide (DMSO)) was “readily soluble”. The solubility (Solubility in solvents; methanol) was “practically insoluble”, the solubility (Solubility in solvents; water) was “practically insoluble” and the “gender difference in systemic exposure” value ([1]; 10 mg on an empty stomach, low sample size) was “no significant gender difference”. For the same compound, the accumulation ratio ([1]; 40 mg dose as printed in discussion) was 2.4 fold, the “continuous administration until PK steady state” value ([1]; 10 to 40 mg daily) was 7 days and the “accumulation ratios (Rac), range” value ([1]; 10–40 mg range, discussion) was 1.83–2.41. The “gender difference in systemic exposure” value ([1]; 20 and 40 mg following a standard meal, single and multiple administrations) was “no apparent gender difference”, the Cl/F [1, 2] was 9.4 L/h and the Cl/F [1, 3] was 8.1 L/h. For the same compound, the CLss/F [1, 4] was 7.27 (0.97) L/h, the Css_max [1, 4] was 202.6 (39.27) ng/mL and the “Rac (AUC), accumulation ratio at steady state” value [1, 4] was 1.83 (0.16). For the same compound, the “Rac_Cmax, accumulation ratio at steady state” value [1, 4] was 1.96 (0.28), the Cl/F [1, 5] was 8.8 L/h and the CLss/F [1, 6] was 7.25 (1.4) L/h. For the same compound, the Css_max [1, 6] was 435.6 (87.5) ng/mL, the “Rac (AUC), accumulation ratio at steady state” value [1, 6] was 1.96 (0.35) and the “Rac_Cmax, accumulation ratio at steady state” value [1, 6] was 2.1 (0.4). For the same compound, the “accumulation ratio Rac_Cmax, arithmetic mean range” value ([1]; after multiple administrations, 10, 20, 40 mg groups) was 1.9546–2.4058, the AUC(0-t) ([1]; 10 mg, MAD 10 mg (N = 10), D1, fasting, read-out: AUC0-t) was 483 ng·h/mL and the AUC(0-t) ([1]; 10 mg, MAD 10 mg (N = 10), D1, fasting, read-out: AUC0–24h) was 486 ng·h/mL. For the same compound, the Vd/F ([1]; 10 mg, MAD 10 mg (N = 10), D1, fasting, read-out: Vz/F) was 350 L, the Tmax ([1]; 10 mg, MAD 10 mg (N = 10), D1, fasting, median (min, max), read-out: Tmax) was 5.5 h and the Vd/F ([1]; 10 mg, MAD D10, 10 mg dose group, read-out: Vss/F) was 521 L. It also gave a Tmax at 10 days ([1]; 10 mg, MAD D10, 10 mg dose group, median (min, max)) of 4.5 h, an AUC(0-t) ([1]; 20 mg, MAD 20 mg (N = 9), D1, after standard meal, read-out: AUC0-t) of 1520 ng·h/mL and an AUC(0-t) ([1]; 20 mg, MAD 20 mg (N = 9), D1, after standard meal, read-out: AUC0–24h) of 1530 ng·h/mL. For the same compound, the Vd/F ([1]; 20 mg, MAD 20 mg (N = 9), D1, after standard meal, read-out: Vz/F) was 189 L, the Tmax ([1]; 20 mg, MAD 20 mg (N = 9), D1, after standard meal, median (min, max), read-out: Tmax) was 5 h and the Vd/F ([1]; 20 mg, MAD 20 mg (N = 9), D10, QD after standard meal, read-out: Vss/F) was 402 L. It also gave a Tmax at 10 days ([1]; 20 mg, MAD 20 mg (N = 9), D10, QD after standard meal, median (min, max)) of 2 h, an AUC(0-t) ([1]; 40 mg, MAD 40 mg (N = 10), D1, after standard meal, read-out: AUC0-t) of 2920 ng·h/mL and an AUC(0-t) ([1]; 40 mg, MAD 40 mg (N = 10), D1, after standard meal, read-out: AUC0–24h) of 2930 ng·h/mL. The Vd/F ([1]; 40 mg, MAD 40 mg (N = 10), D1, after standard meal, read-out: Vz/F) was 192 L, the Tmax ([1]; 40 mg, MAD 40 mg (N = 10), D1, after standard meal, median (min, max), read-out: Tmax) was 5 h and the Vd/F ([1]; 40 mg, MAD 40 mg (N = 10), D10, QD after standard meal, read-out: Vss/F) was 321 L. The Tmax at 10 days ([1]; 40 mg, MAD 40 mg (N = 10), D10, QD after standard meal, median (min, max)) was 2.5 h, the Tmax ([1]; 40 mg, following a single administration, 10, 20, 40 mg groups, read-out: median time to peak concentration (Tmax), range) was 5 to 5.5 h and the Cmax [1, 2] was 30.6 ng/mL. For the same compound, the MRT inf [1, 2] was 40 h, the Cmax [1, 3] was 104 ng/mL and the MRT inf [1, 3] was 25.3 h. For the same compound, the AUC [1, 4] was 2790 ng·h/mL, the AUC(0-inf) [1, 4] was 5470 ng·h/mL and the half-life [1, 4] was 38.6 h. The concentration at 10 day [1, 4] was 66.8 ng/mL, the Cmax [1, 5] was 208 ng/mL and the MRT inf [1, 5] was 24.3 h. For the same compound, the AUC [1, 6] was 5730 ng·h/mL, the AUC(0-inf) [1, 6] was 10500 ng·h/mL and the half-life [1, 6] was 30.9 h. For the same compound, the concentration at 10 day [1, 6] was 132 ng/mL, the half-life ([1]; MAD D10, 10 mg dose group) was 39.1 h and the concentration at 10 day ([1]; MAD D10, 10 mg dose group) was 30 ng/mL. The AUC(0-inf) ([1]; MAD D10, head prints 20 mg (N = 9)) was 2490 ng·h/mL and the duration of immobility (rats) was “significantly reduce”.

Reference: publication PMC11979273, “A phase I study to evaluate the safety, tolerability, and pharmacokinetics of HEC113995PA·H2O, a novel dual-acting serotonergic antidepressant, in healthy subjects” (Frontiers in Pharmacology, 2025)
